{"source": "paper PMC5901969", "about": "(Pharmaceutical research, 2017)", "key": {"[1]": {"test_system": "HIV-infected (U1) cell line", "assay": "Intracellular DRV concentration-time profile in HIV-infected monocytic", "assay_type": "in vitro ADME", "settings": "U1 cells"}, "[2]": {"test_system": "monocytes", "settings": "absence of cobicistat; cited from earlier work"}, "[3]": {"test_system": "HIV", "assay_type": "cell-based", "settings": "U1 cells, 24 h, p24"}, "[4]": {"biological_target": "T1, CYP3A4 (Homo sapiens, UniProt P08684)", "T1 sequence (P08684 whole entry)": "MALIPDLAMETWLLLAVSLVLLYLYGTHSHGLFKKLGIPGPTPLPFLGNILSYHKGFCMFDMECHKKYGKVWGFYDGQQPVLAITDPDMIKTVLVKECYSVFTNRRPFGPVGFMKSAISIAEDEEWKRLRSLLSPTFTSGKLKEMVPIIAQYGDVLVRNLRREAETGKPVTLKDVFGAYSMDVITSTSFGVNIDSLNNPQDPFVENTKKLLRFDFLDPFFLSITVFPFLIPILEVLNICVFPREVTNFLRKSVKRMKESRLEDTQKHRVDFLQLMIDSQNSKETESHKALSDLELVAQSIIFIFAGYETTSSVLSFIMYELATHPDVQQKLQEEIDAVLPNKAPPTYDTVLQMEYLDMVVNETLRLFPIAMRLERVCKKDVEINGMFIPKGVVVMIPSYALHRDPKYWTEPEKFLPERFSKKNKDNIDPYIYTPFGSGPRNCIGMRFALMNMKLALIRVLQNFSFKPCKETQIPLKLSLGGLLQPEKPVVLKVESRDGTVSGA", "settings": "read-out: apparent Km; ethanol as CYP3A4 substrate; cited from earlier work"}, "[5]": {"settings": "oral 100 mg QD; cited from earlier work"}, "[6]": {"biological_target": "T1, CYP3A4", "settings": "cited from earlier work"}, "[7]": {"settings": "10 mM and 50 mM ethanol (data not shown)"}}, "note": "Where two headings read alike, the source gives them in different places."}
{"compound": "CC(C)CN(C[C@@H](O)[C@H](Cc1ccccc1)NC(=O)O[C@H]1CO[C@H]2OCC[C@H]21)S(=O)(=O)c1ccc(N)cc1", "note": "[DRV, Darunavir]", "values": [{"measurement": "decrease in intracellular AUCtot of DRV", "setting": "[1]; 3 μg/ml DRV, 20 mM ethanol, compared to DRV alone", "result": 11, "unit": "%"}, {"measurement": "intracellular DRV AUCtot, effect of ethanol", "setting": "[1]; [7]", "result": "no significant change"}, {"measurement": "intracellular DRV Cmax, effect of ethanol", "setting": "[1]; [7]", "result": "no significant change"}, {"measurement": "intracellular Cmax of DRV, effect of ethanol", "setting": "[1]; 20 mM ethanol", "result": "without altering"}]}
{"compound": "COc1cc2c(cc1Cc1cccc(Cl)c1F)c(=O)c(C(=O)O)cn2[C@H](CO)C(C)C", "note": "[EVG, Elvitegravir]", "values": [{"measurement": "intracellular AUCtot, effect of ethanol exposure", "setting": "[2]", "result": "decreases"}, {"measurement": "intracellular Cmax, effect of ethanol exposure", "setting": "[2]", "result": "decreases"}]}
{"compound": "CCO", "note": "[Ethanol]", "values": [{"measurement": "increase in HIV replication compared to control", "setting": "[3]; 10 mM ethanol alone", "result": 89, "unit": "%"}, {"measurement": "increase in HIV replication compared to control", "setting": "[3]; 20 mM ethanol alone", "result": 20.6, "unit": "%"}, {"measurement": "increase in HIV replication compared to control", "setting": "[3]; 50 mM ethanol alone", "result": 41, "unit": "%"}, {"measurement": "Km", "setting": "[4]", "result": 10, "unit": "mM"}]}
{"compound": "CC(C)c1nc(CN(C)C(=O)N[C@H](C(=O)N[C@@H](Cc2ccccc2)C[C@H](O)[C@H](Cc2ccccc2)NC(=O)OCc2cncs2)C(C)C)cs1", "note": "[RTV, Ritonavir]", "values": [{"measurement": "Cmax", "setting": "[5]", "result": 1000, "unit": "ng/mL"}]}
{"compound": "Cc1c(O)cccc1C(=O)N[C@@H](CSc1ccccc1)[C@H](O)CN1C[C@H]2CCCC[C@H]2C[C@H]1C(=O)NC(C)(C)C", "note": "[nelfinavir]", "values": [{"measurement": "decrease in IC50 in response to ethanol exposure", "setting": "[6]", "result": 3, "unit": "fold"}]}
